How the values were obtained:
[1] = molecular target: T1, Dihydropeptidase-1 (DHP-1) (Sus scrofa, UniProt P22412); assay: Sensitivity Assay Against Dihydropeptidase-1 (DHP-1); details: pig, DHP-1 enzyme extracted from hog kidney
T1 sequence (P22412 17-384): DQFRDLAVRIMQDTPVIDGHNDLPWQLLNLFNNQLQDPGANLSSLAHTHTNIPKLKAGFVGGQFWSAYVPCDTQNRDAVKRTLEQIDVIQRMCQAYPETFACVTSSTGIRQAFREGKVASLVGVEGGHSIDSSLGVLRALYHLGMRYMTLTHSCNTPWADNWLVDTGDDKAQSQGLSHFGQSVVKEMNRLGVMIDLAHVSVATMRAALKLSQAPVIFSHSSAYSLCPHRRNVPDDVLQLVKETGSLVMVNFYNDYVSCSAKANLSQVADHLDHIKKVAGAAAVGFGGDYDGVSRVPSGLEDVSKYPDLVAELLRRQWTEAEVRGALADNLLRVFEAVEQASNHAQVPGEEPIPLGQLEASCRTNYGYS
Procedure: (§3) The rate of degradation of the inventive compounds by the action of DHP-1 enzyme extracted from hog kidney was determined as follow.
(§4) 0.2 unit of the enzyme was allowed to react with the above solution at 30° C., and the absorbance at 299 nm of the remaining medicament was measured to determine the degradation rate. The absorbance was measured at 0, 0.5, 1, 2 and 4 hour points, and T1/2, the time when the concentration of the medicament become the half, was obtained by regression analysis.

[2] = tested on: Staphylococcus aureus 208E; assay: Measurement of Minimum Inhibitory Concentration (MIC), MRSA; format: cell-based; details: Staphylococcus aureus 208E
Procedure: (§1) The antibacterial activities of the compounds of the present invention prepared in the above Examples against Gram-positive and Gram-negative bacteria, MRSA and QRS were tested as follows.
(§2) Respective bacterial strains were inoculated into 3 ml of Fleisch extract broth (beef extract 1%, peptone 1%, NaCl 0.3%, Na2HPO4.12H2O 0.2%, pH 7.4-7.5. 10% horse serum was supplemented for Streptococcus pyogenes and S. facium) and cultured on a shaking incubator at 37° C. for 18 hours. About 10^4 CFU/spot of the cultured bacterial strains were inoculated onto Müller-Hinton agar plates containing serial double dilutions (final concentration of 0.002 to 100 μg/ml) of a test compound employing an automatic inoculator (Dynatech, USA), and incubated at 37° C. for 18 hours. When the incubation was completed, the minimum inhibitory concentration was determined. Meropenem (Yuhan corporation, Korea) and vancomycin (Cj Inco., Korea) were used as standard antibiotics, respectively.

[3] = tested on: Staphylococcus aureus 121E; assay: as above; format: cell-based; details: Staphylococcus aureus 121E
Procedure: as §1, §2

[4] = tested on: Staphylococcus aureus 88E; assay: as above; format: cell-based; details: Staphylococcus aureus 88E
Procedure: as §1, §2

[5] = tested on: Staphylococcus aureus 256E; assay: as above; format: cell-based; details: Staphylococcus aureus 256E
Procedure: as §1, §2

[6] = tested on: Staphylococcus aureus 694E; assay: as above; format: cell-based; details: Staphylococcus aureus 694E
Procedure: as §1, §2

[7] = tested on: Staphylococcus aureus 692E; assay: as above; format: cell-based; details: Staphylococcus aureus 692E
Procedure: as §1, §2

[8] = tested on: Staphylococcus aureus 693E; assay: as above; format: cell-based; details: Staphylococcus aureus 693E
Procedure: as §1, §2

[9] = tested on: Staphylococcus aureus 697E; assay: as above; format: cell-based; details: Staphylococcus aureus 697E
Procedure: as §1, §2

[10] = tested on: Staphylococcus aureus 695E; assay: as above; format: cell-based; details: Staphylococcus aureus 695E
Procedure: as §1, §2

[11] = tested on: Staphylococcus aureus 690E; assay: as above; format: cell-based; details: Staphylococcus aureus 690E
Procedure: as §1, §2

[12] = tested on: Staphylococcus aureus 241; assay: Measurement of Minimum Inhibitory Concentration (MIC), QRS; format: cell-based; details: QRS, Staphylococcus aureus 241
Procedure: as §1, §2

[13] = tested on: Staphylococcus aureus 293; assay: as above; format: cell-based; details: QRS, Staphylococcus aureus 293
Procedure: as §1, §2

[14] = tested on: Staphylococcus epidermidis 178; assay: as above; format: cell-based; details: QRS, Staphylococcus epidermidis 178
Procedure: as §1, §2

[15] = tested on: Staphylococcus epidermidis 291; assay: as above; format: cell-based; details: QRS, Staphylococcus epidermidis 291
Procedure: as §1, §2

[16] = tested on: Staphylococcus aureus 179; assay: as above; format: cell-based; details: QRS, Staphylococcus aureus 179
Procedure: as §1, §2

[17] = tested on: Staphylococcus pyogenes 77A; assay: Measurement of Minimum Inhibitory Concentration (MIC); format: cell-based; details: Staphylococcus pyogenes 77A
Procedure: as §1, §2

[18] = tested on: Staphylococcus aureus 503; assay: as above; format: cell-based
Procedure: as §1, §2

[19] = tested on: Enterobacter cloacae P 99; assay: as above; format: cell-based
Procedure: as §1, §2

Escherichia coli DC 2 = assay: as above; format: cell-based
Procedure: as §1, §2

[20] = tested on: Salmonella typhimurium 179; assay: as above; format: cell-based; details: Salmonella typhimurium 179
Procedure: as §1, §2

[21] = tested on: Klebsiella oxytoca 1082 E; assay: as above; format: cell-based
Procedure: as §1, §2

[22] = tested on: Enterobacter cloacae 1321 E; assay: as above; format: cell-based
Procedure: as §1, §2

Escherichia coli 078 = assay: as above; format: cell-based
Procedure: as §1, §2

[23] = tested on: Staphylococcus aureus 285; assay: as above; format: cell-based
Procedure: as §1, §2

Escherichia coli 1507 E = assay: as above; format: cell-based
Procedure: as §1, §2

[24] = tested on: Staphylococcus pyogenes 308A; assay: as above; format: cell-based; details: Staphylococcus pyogenes 308A
Procedure: as §1, §2

[25] = tested on: Klebsiella aerogenes 1522 E; assay: as above; format: cell-based
Procedure: as §1, §2

Escherichia coli TEM = assay: as above; format: cell-based; details: Escherichia coli TEM
Procedure: as §1, §2

Escherichia coli DC 0 = assay: as above; format: cell-based
Procedure: as §1, §2

[26] = tested on: Staphylococcus faecium MD 8b; assay: as above; format: cell-based; details: Staphylococcus faecium MD 8b
Procedure: as §1, §2

[27] = molecular target: T1, Dihydropeptidase-1 (DHP-1)
Procedure: as §3, §4

[28] = Test of Pharmacokinetics in Animals (mice); format: in vivo; details: mouse, in vivo, 40 mg/kg
Procedure: The pharmacokinetics of the carbapenem derivatives of the present invention was determined using mice. […] Standard antibiotic samples were prepared by serial two-fold dilution with control blood. […] PK (pharmacokinetic) change indicators (AUC, Tmax, Cmax and T1/2) of the test compound concentration remaining in the mouse blood over time were assayed over a set period.

Structure (SMILES): C[C@@H](O)[C@H]1C(=O)N2C(C(=O)O)=C(SCCN=CN)C[C@H]12 [Imipenem, imipenem]
- half-life at 500 μg/ml [1]: 143 min

Structure (SMILES): C[C@@H](O)[C@H]1C(=O)N2C(C(=O)[O-])=C(SC3CN(Cc4ccccc4)C3)[C@H](C)[C@H]12.[K+] [Exam. 13, Potassium(1R,5S,6S)-2-(1-benzyl-azetidine-3-yl-thio)-6-[(1R)-1-hydroxylethyl]-1-methylcarbapen-2-em-3-carboxylate]
- MIC [2]: 0.049 µg/mL
- MIC [3]: 0.025 µg/mL
- MIC [4]: 0.025 µg/mL
- MIC [5]: 0.013 µg/mL
- MIC [6]: 1.563 µg/mL
- MIC [7]: 0.025 µg/mL
- MIC [8]: 3.125 µg/mL
- MIC [9]: 0.025 µg/mL
- MIC [10]: 0.391 µg/mL
- MIC [11]: 0.391 µg/mL
- MIC [12]: 0.049 µg/mL
- MIC [13]: 0.098 µg/mL
- MIC [14]: 0.391 µg/mL
- MIC [15]: 0.391 µg/mL
- MIC [16]: 0.049 µg/mL
- MIC [17]: 0.002 µg/mL
- MIC [18]: 0.013 µg/mL
- MIC [19]: 0.098 µg/mL
- MIC (Escherichia coli DC 2): 0.025 µg/mL
- MIC [20]: 0.049 µg/mL
- MIC [21]: 0.049 µg/mL
- MIC [22]: 0.049 µg/mL
- MIC (Escherichia coli 078): 0.049 µg/mL
- MIC [23]: 0.025 µg/mL
- MIC (Escherichia coli 1507 E): 0.049 µg/mL
- MIC [24]: 0.002 µg/mL
- MIC [25]: 0.098 µg/mL
- MIC (Escherichia coli TEM): 0.049 µg/mL
- MIC (Escherichia coli DC 0): 0.098 µg/mL
- MIC [26]: 1.563 µg/mL
- T1/2 (time when the concentration of the medicament become the half) [27]: 19.28
- AUC, times higher than meropenem [28]: 10 to 12 times
- increase in T1/2 than meropenem [28]: more than 2 times
- AUC (area under blood-medicament concentration curve till 24 hours from administration) ([28]; po): 1730 ng·h/mL
- Cmax ([28]; po): 1060 ng/mL
- T1/2 (half time of blood-medicament concentration) ([28]; po): 48.6 min
- Tmax ([28]; po): 29.4 min
- absorption through the oral route ([28]; po): absorbed through the oral route to significant extents
- AUC (area under blood-medicament concentration curve till 24 hours from administration) ([28]; sc): 94760 ng·h/mL
- Cmax ([28]; sc): 86830 ng/mL
- T1/2 (half time of blood-medicament concentration) ([28]; sc): 55.2 min
- Tmax ([28]; sc): 13.2 min

Structure (SMILES): C[C@@H](O)[C@H]1C(=O)N2C(C(=O)[O-])=C(SC3CN([C@@H](C)c4ccccc4)C3)[C@H](C)[C@H]12.[K+] [Exam. 22, Potassium(1R,5S,6S)-2-{1-[(1S)-1-phenylethyl]-azetidine-3-yl-thio}-6-[(R)-1-hydroxylethyl]-1-methylcarbapen-2-em-3-carboxylate]
- MIC [2]: 0.025 µg/mL
- MIC [3]: 0.049 µg/mL
- MIC [4]: 0.025 µg/mL
- MIC [5]: 0.025 µg/mL
- MIC [6]: 0.049 µg/mL
- MIC [7]: 0.025 µg/mL
- MIC [8]: 3.125 µg/mL
- MIC [9]: 0.025 µg/mL
- MIC [10]: 0.098 µg/mL
- MIC [11]: 0.195 µg/mL
- MIC [12]: 0.049 µg/mL
- MIC [13]: 0.195 µg/mL
- MIC [14]: 0.195 µg/mL
- MIC [15]: 0.391 µg/mL
- MIC [16]: 0.049 µg/mL
- MIC [17]: 0.002 µg/mL
- MIC [18]: 0.013 µg/mL
- MIC [19]: 0.391 µg/mL
- MIC (Escherichia coli DC 2): 0.025 µg/mL
- MIC [20]: 0.049 µg/mL
- MIC [21]: 0.098 µg/mL
- MIC [22]: 0.098 µg/mL
- MIC (Escherichia coli 078): 0.098 µg/mL
- MIC [23]: 0.025 µg/mL
- MIC (Escherichia coli 1507 E): 0.195 µg/mL
- MIC [24]: 0.002 µg/mL
- MIC [25]: 0.391 µg/mL
- MIC (Escherichia coli TEM): 0.391 µg/mL
- MIC (Escherichia coli DC 0): 0.391 µg/mL
- MIC [26]: 1.563 µg/mL
- T1/2 (time when the concentration of the medicament become the half) [27]: 65.99
- stability against hydrolysis by DHP-1 (in words) [27]: very stable

Structure (SMILES): COc1ccccc1CN1CC(SC2=C(C(=O)[O-])N3C(=O)[C@H]([C@@H](C)O)[C@H]3[C@H]2C)C1.[K+] [Exam. 16, Potassium(1R,5S,6S)-2-[1-(2-methoxybenzyl)-azetidine-3-yl-thio]-6-[(1R)-1-hydroxylethyl]-1-methylcarbapen-2-em-3-carboxylate]
- MIC [2]: 0.025 µg/mL
- MIC [3]: 0.025 µg/mL
- MIC [4]: 0.025 µg/mL
- MIC [5]: 0.025 µg/mL
- MIC [6]: 0.049 µg/mL
- MIC [7]: 0.049 µg/mL
- MIC [8]: 1.563 µg/mL
- MIC [9]: 0.025 µg/mL
- MIC [10]: 0.049 µg/mL
- MIC [11]: 0.195 µg/mL
- MIC [12]: 0.025 µg/mL
- MIC [13]: 0.098 µg/mL
- MIC [14]: 0.195 µg/mL
- MIC [15]: 0.391 µg/mL
- MIC [16]: 0.049 µg/mL
- MIC [17]: 0.002 µg/mL
- MIC [18]: 0.013 µg/mL
- MIC [19]: 0.391 µg/mL
- MIC (Escherichia coli DC 2): 0.049 µg/mL
- MIC [20]: 0.098 µg/mL
- MIC [21]: 0.098 µg/mL
- MIC [22]: 0.098 µg/mL
- MIC (Escherichia coli 078): 0.098 µg/mL
- MIC [23]: 0.025 µg/mL
- MIC (Escherichia coli 1507 E): 0.195 µg/mL
- MIC [24]: 0.002 µg/mL
- MIC [25]: 0.391 µg/mL
- MIC (Escherichia coli TEM): 0.195 µg/mL
- MIC (Escherichia coli DC 0): 0.781 µg/mL
- MIC [26]: 1.563 µg/mL
- T1/2 (time when the concentration of the medicament become the half) [27]: 200.91
- stability against hydrolysis by DHP-1 (in words) [27]: very stable

— patent US7662810B2, “2-arylmethylazetidine carbapenem derivatives and preparation thereof” (Korea Research Institute of Chemical Technology, priority 2004, dated 2010)
